# According to patent US20030065039A1, “Biologically active 1,3-bis-aromatic-prop-2-en-1-ones, 1,3-bis-aromatic-propan-1-ones, and 1,3-bis-aromatic-prop-2-yn-1-ones” (Statens Serum Institute, priority 1997, published 2003):
# Read-outs that look alike come from different tables or passages of the source.
# Columns and labels:
# human lymphocytes = assay: Lymphocyte Proliferation Assay; format: cell-based; settings: PHA provoked proliferation of human lymphocytes, read-out: Lymphocytes IC50 ± SD
# Description: Human blood mononuclear cells (BMNC) from heparinized blood were isolated by metrizoate sodium-Ficoll density gradient centrifugation, washed 3 times in RPMI 1640 medium supplemented with 5% FCS and with 400 IU of penicillin plus 400 μg/ml streptomycin. BMNC were resuspended in the medium and cultured in triplicate, 0.63×10^5/ml and 160 μl per vial, in round-bottom microtiter plates with 20 μl of various concentrations of the test compound. Immediately prior to incubation, optimum concentrations of the mitogen phytohaemagglutinin (PHA) and the antigen purified protein derivative of tuberculin (PPD) were added to the cultures in a volume of 20 μl. Unstimulated control cultures were always included. Cultures were incubated for 3 or 7 days. The degree of lymphocyte proliferation was estimated by ^3H-thymidine (1 μCi per well) addition 24 h before the cells were harvested on glass fiber filters by means of a harvesting machine), and ^3H-thymidine incorporation was measured in a liquid scintillation counter. For each set of triplicate values, the median was recorded. Unstimulated cultures were always included as controls.
# Leishmania promastigotes = Leishmania promastigotes Assay; format: cell-based; settings: promastigotes, 3H-thymidine uptake, read-out: Leishmania IC50 ± SD
# Description: A WHO reference vaccine strain of L. major originally isolated from a patient in Iran and a Kenyan strain of L. donovani (MHOM(/KE/85/NLB 274) were cultured in medium 199 containing 0.02 mg/ml gentamycin, 25 mM Hepes, 4 mM L-glutamine, and 20% heat inactivated fetal calf serum (FCS). Incubation was carried out at 26° C. Promastigotes were harvested on day 3 and 6 of the culture and used for the parasite growth inhibition.
# The effect of the test compounds on promastigotes was assessed by a method similar to the one described by Pearson et al., by incubating promastigotes (3×10^6/ml) at 26° C. for 2 hrs in the presence of a given compound or the medium alone in 96 wells flat bottom microtiter plates. Following incubation, 100 μCi of 3H-thymidine was added to each well and further incubated for 18 hrs. Promastigotes were then harvested on filter paper by means of a cell harvester, extensively washed with distilled water and counted in a scintillation counter. The promastigotes were also counted microscopically and their flagellar motility was assessed.
# TNF-α = TNF-α production by human peripheral blood mononuclear cells, culture supernatant (ELISA); format: cell-based
# Description: Cells: Peripheral blood mononuclear cells obtained from healthy individuals. The cells were separated by a conventional method lymphoprep) and suspended in RMPI 1640 containing 5% human serum.
# Stimulation of cytokine-release from human mononuclear cells: Human peripheral blood mononuclear cells from Danish donors were suspended in 1-10% (v/v) human serum in RPMI 1640 and adjusted to 2×10^6 cells per ml. 0.1 ml volumes were then dispensed into wells of 96-well microtiter plates. […] In some experiments cells were preincubated with drugs for 2 hrs before addition of stimulation antigens. The cultures were incubated overnight for TNF-α and IL-6 assays.
# Supernatants were collected and assayed for TNF-α, IL-1α and IL-6 by ELISA procedures (Jakobsen et al., 1993, Fomsgaard et al., 1988, Hansen et al., 1991) with the following modifications. ELISA Maxisorp plates (Nunc, Roskilde, Denmark) were coated for 24 hrs at 4 C with 100 μl per well of 2.5 μg/ml rabbit polyclonal IgG to human recombinant TNF, IL-1α or IL-6 in 100 mM sodiumhydrogencarbonate. Non-attached sites were blocked for 1 h by 200 μl per well of 2% human serum slbumin in PBS (1 h at 37° C.), and the wells were washed 4 times in 2.5% NaCl, 0.1% Tween 20 (Merck, Darmstadt, Germany). This washing procedure was done after each of the following incubating steps:
# 1) 100 μl culture supernatants made to 50% (v/v) in incubation buffer (4% (v/v) normal rabbit serum, DAKO code X902), 1% polyethylene glycol (MW 6,000), 2.5% NaCl, 0.1% Tween 20 in phosphate buffered saline (PBS) were incubated 2 hrs at 37° C., dilutions of native as well as recombinant cytokine standards in the same incubation buffer were asssayed in parallel with the tested supernatants,
# 2) 100 μl per well of biotinilated rabbit antibodies to recombinant TNF-α, IL-1α or IL-6 (1.5 μg/ml in 0.5% human serum albumin, 0.1% Tween 20 in PBS) were added at 37° for 2 hrs,
# 3) […] per well of a 1:1000 dilution of streptavidin-peroxidase (Amersham, UK), at room temperature for 30 min.
# Enzyme activities were quantitated after addition of 100 μl per well of 0.67 mg/ml 1,2-phenyldiamine hydrochloride (DAKO) dissolved in 100 mM citric acid-phosphate buffer, pH 5.0 containing 0.015% (v/v) H2O2. The reactions were stopped by adding 50 μl per well of 2.5 M H2SO4, and the optical densities are measured in an ELISA scanner at 490 nm against a test reference at 620 nm.
# Assay: The compounds were prepared as stock solution at a concentration of 1 mg/ml in medium containing 10% DMSO. The dilutions were made in medium. The cells were stimulated with either SPAG (a malaria antigen TNF-inducer) or bacterial LPS. The supernatant of cell cultures were assayed for TNF-α using a commercial ELISA kit.
# Plasmodium falciparum = Plasmodium falciparum Assay; format: cell-based; settings: 3-H-hypoxanthine incorporation, 48 hours, read-out: Plasmodium IC50 ± SD
# Description: The experiments in which compounds were tested for their ability to inhibit parasite growth were performed by a modification of the method originally described by Jensen et al. (1982). 50 μl of parasitized erythrocytes (parasitemia approximately 1%) in a concentration of 5×10^8/ml and 50 μl of RPMI medium containing different concentrations of the test compound was added to each well of a 96 well flat-bottomed microtiter plate. The cultures were then incubated for 48 hours, 24 hours before termination of the culture adding 20 μl of 3-H-hypoxanthine (40 uCi/ml) was added to each well. The cultures were then harvested onto glass fiber filters using a Skatron cell harvester, and the incorporation of 3-H-hypoxanthine into the DNA of dividing parasites was determined by liquid scintillation spectrometry. Control cultures with uninfected erythrocytes and infected erythrocytes in RPMI medium without test compounds were always performed in parallel to the test cultures. In some experiments thin smears of parasite cultures were stained by Giemsa and examined under microscope (×1000). The test compounds described above, were diluted in RPMI medium immediately before use. In the experiments, chloroquine phosphate was used as a positive control as a drug known to inhibit parasite growth.
# Helicobacter pylori = assay: Helicobacter species Assay (agar plate, MIC); format: cell-based; settings: for MIC: Helicobacter pylori, 20 strains of H. pylori, agar plate, 72 hours, read-out: MIC; for No. strains inhibited/No. strains tested: at the MIC of the same line
# Description: (§1) 20 strains of Helicobacter pylori were used in an agar plate assay. The compounds were incorporated in the agar plates at different concentrations as described in the examples and were then inoculated with different strains of Helicobacter pylori followed by incubation in a microaerophilic atmosphere at 37° C. for 72 hours. The number of colony-forming units (CFU) were counted after the incubation period. The MIC values were determined as the minimal concentration required to inhibit growth of the bacteria.
# (§2) Stock solutions were made at a concentration of 1 mg/ml by dissolving 1 mg of each compound in 100 μl DMSO (dimethylsulfoxide) followed by addition of 900 μl of heat-inactivated fetal claf serum (HFCS). These stock solutions were diluted with HFCS to make solutions having the following concentrations: 320 μg/ml, 160 μg/ml, 80 μg/ml, 40 μg/ml and 20 μg/ml. Dilution rows were made with 3 ml aliquots in vials containing the compounds in the following final test concentrations: 16 μg/ml, 8 μg/ml, 4 μg/ml, 2 μg/ml and 1 μg/ml. As control was used DMSO-HFCS containing an amount of DMSO equal to the amount of test compound in the solution with 320 μg/ml compound.
# as §1, with “Bacteria: 20” for “20”, “concentrations” for “concentrations as described in the examples”, “and then they” for “and”, “were” for “were then”, “incubation at” for “incubation in a”, “C. in” for “C. for”
# as §2, with “concentrations: 2560 μg/ml, 1280 μg/ml, 640 μg/ml,” for “concentrations:”, “160 µg/ml and” for “160 μg/ml,”, “80” for “80 μg/ml, 40 μg/ml and 20”, “concentrations: 128 μg/ml, 64 μg/ml, 32 μg/ml, 12” for “concentrations: 16”, “8” for “8 μg/ml, 4 μg/ml, 2”, “and 4” for “and 1”
# Bacteria: 20 strains of Helicobacter pylori were used in an agar plate assay. The same method as described above under Experiment A was employed and MIC values were determined.
# [1] = Experiment 1, LPS, 12.5 μg/ml, Control 1.17
# [2] = Experiment 1, LPS, 25 μg/ml, Control 1.17
# [3] = Experiment 1, LPS, 50 μg/ml, Control 1.17
# [4] = Experiment 1, LPS, 100 μg/ml, Control 1.17
# [5] = Experiment 1, SPAG, 12.5 μg/ml, Control 3.73
# [6] = Experiment 1, SPAG, 25 μg/ml, Control 3.73
# [7] = Experiment 1, SPAG, 50 μg/ml, Control 3.73
# [8] = Experiment 1, SPAG, 100 μg/ml, Control 3.73
smiles,measurement,setting,value
"COc1ccc(/C=C/C(=O)c2cccc([N+](=O)[O-])c2)c(OC)c1 [3′-NO2-2,4-OCH3, 2,4-dimethoxy-3′-nitrochalcone]",IC50,human lymphocytes; Lymphocyte,18 ± 2 µM
same,melting point,,88.1 to 88.7 °C
same,IC50,Leishmania promastigotes; Leishmania,8.6 µM
"COc1cc(/C=C/C(=O)c2ccc(N(C)C)cc2)cc(OC)c1 [PH32, 4′-dimethylamino-3,5-dimethoxychalcone]",inhibitory effect on TNF-α production,TNF-α,no or very little inhibitory effect
same,TNF-α production (OD values),TNF-α; [1],1.23 OD
same,TNF-α production (OD values),TNF-α; [2],1.55 OD
same,TNF-α production (OD values),TNF-α; [3],1.28 OD
same,TNF-α production (OD values),TNF-α; [4],0.94 OD
same,TNF-α production (OD values),TNF-α; [5],3.90 OD
same,TNF-α production (OD values),TNF-α; [6],2.26 OD
same,TNF-α production (OD values),TNF-α; [7],1.74 OD
same,TNF-α production (OD values),TNF-α; [8],0.75 OD
same,IC50,Plasmodium falciparum; Plasmodium falciparum,17 µM
same,MIC,Helicobacter pylori,> 128 µg/mL
same,No. strains inhibited/No. strains tested,Helicobacter pylori,0/20
"CCCCOc1cccc(C(=O)/C=C/c2ccc(OC)cc2OC)c1 [PH81, 3′-butoxy-2,4-dimethoxychalcone]",IC50,human lymphocytes; Lymphocyte,65 ± 4 µM
same,IC50,Leishmania promastigotes; Leishmania,20 ± 3 µM
same,IC50,Plasmodium falciparum; Plasmodium falciparum,16 µM
same,MIC,Helicobacter pylori,16 µg/mL
same,No. strains inhibited/No. strains tested,Helicobacter pylori,5/20
"CN(C)c1ccc(/C=C/C(=O)c2ccc([N+](=O)[O-])cc2)cc1 [4′-NO2-4-N(CH3)2, 4-dimethylamino-4′-nitrochalcone]",melting point,,214 to 214.7 °C
"COc1cc(O)ccc1/C=C/C(=O)c1ccc(O)cc1 [2-OCH3-4,4′-OH, 2-methoxy-4,4′-dihydroxychalcone]",IC50,human lymphocytes; Lymphocyte,94 ± 4 µM
same,IC50,Leishmania promastigotes; Leishmania,68 ± 4 µM
same,IC50,Plasmodium falciparum; Plasmodium falciparum,19 µM
"O=C(/C=C/c1ccccc1)c1ccc(F)cc1 [4′-F, 4′-fluorochalcone]",IC50,human lymphocytes; Lymphocyte,23 ± 2 µM
same,IC50,Leishmania promastigotes; Leishmania,15 ± 1 µM
same,IC50,Plasmodium falciparum; Plasmodium falciparum,51 µM
"CCCCOc1ccccc1C(=O)/C=C/c1ccc(OC)cc1OC [PH142, 2′-butoxy-2,4-dimethoxychalcone]",TNF-α production (OD values),TNF-α; [1],0.26 OD
same,TNF-α production (OD values),TNF-α; [2],0.24 OD
same,TNF-α production (OD values),TNF-α; [3],0.18 OD
same,TNF-α production (OD values),TNF-α; [4],0.10 OD
same,TNF-α production (OD values),TNF-α; [5],0.02 OD
same,TNF-α production (OD values),TNF-α; [6],0.02 OD
same,TNF-α production (OD values),TNF-α; [7],0.02 OD
same,TNF-α production (OD values),TNF-α; [8],0.02 OD
same,TNF-α production (OD values),"TNF-α; Experiment 2, LPS, 1.562 μg/ml, Control 2.06",1.58 OD
same,TNF-α production (OD values),"TNF-α; Experiment 2, LPS, 3.125 μg/ml, Control 2.06",1.00 OD
same,TNF-α production (OD values),"TNF-α; Experiment 2, LPS, 6.25 μg/ml, Control 2.06",0.65 OD
same,TNF-α production (OD values),"TNF-α; Experiment 2, LPS, 12.5 μg/ml, Control 2.06",0.16 OD
same,TNF-α production (OD values),"TNF-α; Experiment 2, SPAG, 1.562 μg/ml, Control 2.28",1.86 OD
same,TNF-α production (OD values),"TNF-α; Experiment 2, SPAG, 3.125 μg/ml, Control 2.28",0.55 OD
same,TNF-α production (OD values),"TNF-α; Experiment 2, SPAG, 6.25 μg/ml, Control 2.28",0.04 OD
same,TNF-α production (OD values),"TNF-α; Experiment 2, SPAG, 12.5 μg/ml, Control 2.28",0.02 OD
same,MIC,Helicobacter pylori,128 µg/mL
same,No. strains inhibited/No. strains tested,Helicobacter pylori,2/20
"COc1ccc(/C=C/C(=O)c2cccc(Br)c2)c(OC)c1 [3′-Br-2,4-OCH3]",IC50,human lymphocytes,37 ± 2 µM
same,IC50,Leishmania promastigotes,16 ± 1 µM
same,IC50,Plasmodium falciparum,17 µM
"C=CCOc1ccc(C(=O)/C=C/c2cc(OC)c(CCCCCC)c(OC)c2)cc1 [4-C6H13-3,5-OCH3-4′-allyloxy, 4-hexyl-3,5-dimethoxy-4′-(2-propenyloxy)chalcone]",IC50,human lymphocytes; Lymphocyte,15 ± 1 µM
same,IC50,Leishmania promastigotes; Leishmania,19 ± 4 µM
same,IC50,Plasmodium falciparum; Plasmodium falciparum,11 µM
"COc1ccc(/C=C/C(=O)c2ccc(OC)cc2)cc1 [4′,4-OCH3]",IC50,human lymphocytes,112 ± 8 µM
same,IC50,Leishmania promastigotes,106 ± 9 µM
same,IC50,Plasmodium falciparum,51 µM
